Cc1ccc2cc(C)ccc2c1
Settings | solubility (mole fraction)
in cyclohexane, 293.18 K | 0.03
in cyclohexane, 298.86 K | 0.0398
in cyclohexane, 305.57 K | 0.0513
in cyclohexane, 312.3 K | 0.0714
in cyclohexane, 318.76 K | 0.096
in cyclohexane, 323.07 K | 0.115
in cyclohexane, 325.79 K | 0.134
in cyclohexane, 333.08 K | 0.187
in cyclohexane, 339.97 K | 0.253
in ethyl acetate, 287.56 K | 0.0424
in ethyl acetate, 292.27 K | 0.0494
in ethyl acetate, 298.27 K | 0.0585
in ethyl acetate, 305.69 K | 0.0775
in ethyl acetate, 311.52 K | 0.0957
in ethyl acetate, 318.89 K | 0.123
in ethyl acetate, 325.2 K | 0.158
in ethyl acetate, 332.01 K | 0.2
in ethyl acetate, 338.58 K | 0.256
in isooctane, 288.36 K | 0.0234
in isooctane, 293.19 K | 0.0294
in isooctane, 298.62 K | 0.0344
in isooctane, 306.77 K | 0.0487
in isooctane, 315.41 K | 0.0725
in isooctane, 322.03 K | 0.0905
in isooctane, 327.1 K | 0.113
in isooctane, 334.57 K | 0.149
in isooctane, 341.2 K | 0.197
in isopropanol, 286.65 K | 0.0054
in isopropanol, 294.55 K | 0.0072
in isopropanol, 301.45 K | 0.0098
in isopropanol, 309.65 K | 0.0136
in isopropanol, 315.75 K | 0.0174
in isopropanol, 323.22 K | 0.023
in isopropanol, 330.55 K | 0.0297
in isopropanol, 335.95 K | 0.0371
in isopropanol, 341.65 K | 0.0517
in n-heptane, 288.85 K | 0.0289
in n-heptane, 293.58 K | 0.0359
in n-heptane, 298.72 K | 0.0433
in n-heptane, 304.56 K | 0.0529
in n-heptane, 311.77 K | 0.0632
in n-heptane, 317.8 K | 0.0775
in n-heptane, 324.79 K | 0.0979
in n-heptane, 332.39 K | 0.132
in n-heptane, 339.42 K | 0.17
in n-propyl acetate, 286.65 K | 0.0485
in n-propyl acetate, 293.5 K | 0.0638
in n-propyl acetate, 300.85 K | 0.0815
in n-propyl acetate, 307.41 K | 0.103
in n-propyl acetate, 313.85 K | 0.127
in n-propyl acetate, 320.65 K | 0.159
in n-propyl acetate, 328.22 K | 0.206
in n-propyl acetate, 333.46 K | 0.245
in n-propyl acetate, 338.17 K | 0.289
